These results are taken from PMC8291485, “Development of New Benzylpiperazine Derivatives as σ1 Receptor Ligands with in Vivo Antinociceptive and Anti-Allodynic Effects” (ACS Chemical Neuroscience, 2021).

Entries after “also recorded” stand apart in the source; their conditions may differ. Read-outs that look alike come from different tables or passages of the source. Bounds are passed on as bounds.

One data set concerns the target T1, σ2R (Rattus norvegicus, UniProt Q5U3Y7).
T1 sequence (Q5U3Y7 1-176): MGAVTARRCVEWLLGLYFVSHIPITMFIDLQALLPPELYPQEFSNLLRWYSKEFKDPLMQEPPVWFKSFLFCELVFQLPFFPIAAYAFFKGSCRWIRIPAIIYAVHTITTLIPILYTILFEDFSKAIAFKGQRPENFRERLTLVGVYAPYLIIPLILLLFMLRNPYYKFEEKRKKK
More on the design: method as in PMID 22784008, PMID 31258480, PMID 31981633, PMID 32691179, PMID 28644012. The note with it: cited from earlier work.

Data set [1] has as its system CCI-induced mechanical allodynia. The data set can be described thus: Chronic constriction injury (CCI) model, von Frey mechanical allodynia. In kind it is in vivo, CD-1 mice. The note with it: for anti-allodynic effect in the CCI model (result in words): von Frey, 20–80 min post-injection, 15 10–60 mg/kg i.p. (oxalate salt). As for the experimental part:
CCI was introduced in CD-1 mice that were first anesthetized with isoflurane as described by Hoot et al.[66] and Cirino et al.[35] to induce mechanical allodynia.[51]−[54] After anesthetization, mice were subjected to surgery where an incision was made along the surface of the biceps femoris of the right hind paw.[66] Blunt forceps were used to split the muscle and expose the right sciatic nerve. The tips of two 0.1–10 μL pipet tips facing opposite directions were passed under the sciatic nerve to allow for easy passing of two sutures under the nerve, 1 mm apart. The sutures were tied loosely around the nerve and knotted twice, and the skin was closed with 29 mm skin staples. Mice were given a 7 day recovery period prior to the baseline von Frey testing as described below to confirm the induction of hyperalgesia in each mouse. […] Allodynic mice were then administered (i.p.) either vehicle (saline), morphine (10 mg/kg, i.p.), gabapentin (50 mg/kg, i.p.), CM304 (45 mg/kg, i.p.), or compound 15 (10–60 mg/kg, i.p.). Note that gabapentin was tested 1 h postinjection to circumvent known sedative effects that may confound the assay.[67] Each mouse was then tested for the modulation of tactile allodynia every 20 min up until 80 min post-injection with the use of von Frey testing. The assessment of mechanical allodynia was performed to measure compound 15’s efficacy against CCI-induced allodynia as described.[51]−[54] Mice were habituated on a mesh platform for 1 h prior to testing. Filaments of increasing pressure (0.4–6 g) were applied and then held to the plantar surface of both the injured and uninjured hind paws of mice for approximately 1–2 s prior to drug administration to record baseline responses to a peripheral stimulus. The filaments were applied with increasing strengths, and threshold responses were defined as two hind paw responses per trial of the same filament strength. Control or test compounds were administered (i.p.), and paw-withdrawal thresholds were again recorded from 20 to 80 min postinjection. Each hind paw was tested in a counterbalanced manner. Each time was measured in triplicate and then averaged. Responsiveness was a clear withdrawal, shaking, or licking of the paw. To account for variability between mice, data are presented as the percent of baseline paw withdrawal thresholds following filament stimulation of the ipsilateral hind paw. The following equation was used: % anti-allodynia = 100 × ([mean paw withdrawal force {g} in control group – paw withdrawal force {g} of each mouse]/mean paw withdrawal force [g] in control group).

The target in data set [2] is σ1R. More on the design: method as in PMID 22784008, PMID 31258480, PMID 31981633, PMID 32691179, PMID 28644012. The following applies: cited from earlier work; for Ki: Figure 1, read-out: Ki σ1.
The target in data set [3] is T2, σ1R (Cavia porcellus, UniProt Q60492).
T2 construct: from tissue; host or cells: guinea pig brain membrane homogenates
T2 sequence (Q60492 whole entry): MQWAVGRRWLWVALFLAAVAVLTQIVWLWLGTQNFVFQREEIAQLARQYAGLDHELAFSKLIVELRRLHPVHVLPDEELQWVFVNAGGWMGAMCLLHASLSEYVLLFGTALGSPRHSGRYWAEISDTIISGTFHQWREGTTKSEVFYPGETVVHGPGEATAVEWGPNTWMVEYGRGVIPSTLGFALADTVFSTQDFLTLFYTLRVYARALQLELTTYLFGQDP
Also noted: method as in PMID 27262426. The note with it: lead compound 8, selectivity ratio; cited from earlier work.

Data set [4] addresses T2, σ1R. The data set can be described thus: σ1R radioligand binding assay ([3H]-pentazocine, guinea pig brain membrane homogenates). The following applies: for Ki: mean ± SD of three independent experiments, [3H]-pentazocine, free base; for Ki σ2/Ki σ1: σ1R selectivity ratio over σ2R.
Procedure: The binding assay for σ1R was carried out using guinea pig brain membrane homogenates according to DeHaven-Hudkins et al.,[58] while the binding assay for σ2R was performed following experimental procedures described by Mach et al.[59] Inhibitory constants (Ki) were calculated using the radioligand binding analysis software EBDA/Ligand (Elsevier/Biosoft).
The test system of data set [5] is formalin-induced inflammatory nociception. In words: Formalin-induced inflammation assay (time spent licking the paw). The data set is classed as in vivo. The following applies: C57BL/6J mice, 3–30 mg/kg i.p.; 15 as oxalate salt. On the procedure:
After a 10 min pretreatment (i.p.) of vehicle control (saline), CM304 (3–30 mg/kg, i.p.), or compound 15 (3–30 mg/kg, i.p.), an intraplantar (i.pl.) injection of 5% formalin ([…] in 15 μL) was administered into the right hind paw. Time spent licking the right hind paw was recorded in 5 min intervals for 60 min following injection. The last 55 min of assessment was used to determine the inflammatory response stimulus. Data were analyzed as the summed duration of licking hind paw.
All data are presented as mean ± SEM. Significance is indicated as *p < 0.05 and was analyzed using two-way ANOVA with Tukey’s post hoc analysis. Statistical analysis was performed with the use of GraphPad Prism 9.0 software. […]. The rotarod data are expressed as the % change from baseline performance for each animal’s baseline response.

On to `O=c1sc2cc(CCCF)ccc2n1CCN1CCCCCC1` [Compound 1], for which the Ki (in general, a measure of affinity in units of concentration, obtained from inhibition or displacement) on σ2R (Figure 1, read-out: Ki σ2) is 467 nM; on σ1R [2], 0.96 nM. In addition, the “time of peak anti-allodynic effect” value in data set [1] (CD-1 mice, CM304 45 mg/kg i.p., began to diminish at 60 min) is recorded as 40 min. In addition, in data set [1] (CD-1 mice, CM304 45 mg/kg i.p.), the “anti-allodynic effect in the CCI model (result in words)” value is reported as “anti-allodynic effects that are comparable to those of gabapentin”. Also, on σ1R [2] (printed in Figure 1, σ1R selectivity), the “Ki σ2/Ki σ1” value is recorded as over 486.

In the case of `COc1cc2c(cc1OC)CN(CCCCn1c(=O)n(C)c3ccccc31)CC2` [Compound 3, 1-(4-(6,7-dimethoxy-3,4-dihydroisoquinolin-2(1H)-yl)butyl)-3-methyl-1H-benzo[d]imidazol-2(3H)-one], at σ2R (printed in Figure 1, σ2R selectivity), the “Ki σ1/Ki σ2” value is > 1,302. For the same compound, on σ1R [2], the Ki was 560 nM.

In the case of `OCCCN1CCCC2CC1c1cc(-c3ccc(C(F)(F)F)cc3)ccc12` (stereo not drawn) [Compound 4], the Ki at σ1R [2] was over 1000 nM.

Consider `CC(CCCn1c(=O)sc2cc(F)ccc21)N1CCN(C2CCCCC2)CC1` (stereo not drawn) [Compound 5], for which the Ki on σ1R [2] is 2.4 nM.

For `O=c1oc2ccc(Cl)cc2n1CCCCN1CCCCCC1` [Compound 6], at σ1R [2], the Ki is 2.3 nM.

On to `COc1ccc(CN2CCN(C(=O)CCCCC3CCSS3)CC2)cc1` (stereo not drawn) [Compound 8], for which, at σ1R [3], the “Ki σ2/Ki σ1” value is reported as 432.

As to `COc1ccc(CN2CCN(C(=O)CCCCc3ccccc3)CC2)cc1` [Compound 13, 1-{4-[(4-Methoxyphenyl)methyl]piperazin-1-yl}-5-phenylpentan-1-one], at σ1R [4], the affinity, expressed as Ki, was 18.1 ± 0.44 nM and the “Ki σ2/Ki σ1” value stood at 64.

Take `COc1ccc(CN2CCN(C(=O)CCCc3ccccc3)CC2)cc1` [Compound 14, 1-{4-[(4-Methoxyphenyl)methyl]piperazin-1-yl}-4-phenylbutan-1-one]: the melting point (as a rule, the temperature, or range, at which the solid turns liquid) is 91 to 93.9 °C. On σ1R [4], the Ki was 13.3 ± 0.22 nM and the “Ki σ2/Ki σ1” value is 124.

Turning to `COc1ccc(CN2CCN(C(=O)CCC3CCCCC3)CC2)cc1` [Compound 15, 3-Cyclohexyl-1-{4-[(4-methoxyphenyl)methyl]piperazin-1-yl}propan-1-one], on σ1R [4], the Ki was found to be 1.6 ± 0.05 nM and the “Ki σ2/Ki σ1” value came to 886. Besides, the “antinociception in the formalin assay (result in words)” value in data set [5] is “dose-dependent (3–60 mg/kg, i.p.) antinociception and anti-allodynic effects; also recorded: significant dose-dependent antinociception; also recorded: dose-dependent increase in % antinociception; also recorded: significant antinociceptive and anti-allodynic effects”. In data set [1] (60 mg/kg, i.p., at 20, 60, and 80 min post-injection, p < 0.05), the “paw withdrawal thresholds in the CCI model (result in words)” value is “significant increases in withdrawal thresholds”. Besides, the “anti-allodynic effect in the CCI model (result in words)” value in data set [1] (CD-1 mice, CM304 45 mg/kg i.p.) was “dose-dependent (3–60 mg/kg, i.p.) antinociception and anti-allodynic effects; also recorded: significant dose-dependent anti-allodynic effects; also recorded: significant antinociceptive and anti-allodynic effects”.

Compound `COc1ccc(CN2CCN(C(=O)/C=C/c3ccccc3)CC2)cc1` [Compound 16, (2E)-1-{4-[(4-Methoxyphenyl)methyl]piperazin-1-yl}-3-phenylprop-2-en-1-one] came in with a melting point of 120.8 to 122.6 °C. Also, at σ1R [4], the Ki was determined as 11.3 ± 0.26 nM and the “Ki σ2/Ki σ1” value turned out to be 351.

Consider `COc1ccc(CN2CCN(C(=O)CCCOc3ccccc3)CC2)cc1` [Compound 20, 1-{4-[(4-Methoxyphenyl)methyl]piperazin-1-yl}-4-phenoxybutan-1-one], for which the melting point lay within 88.3 to 91.3 °C. For the same compound, on σ1R [4], the Ki was determined as 102 ± 0.6 nM and the “Ki σ2/Ki σ1” value is on record as 43.

On to `COc1ccc(CN2CCN(C(=O)CCc3ccccc3)CC2)cc1` [Compound 21, 1-{4-[(4-Methoxyphenyl)methyl]piperazin-1-yl}-3-phenylpropan-1-one], for which, at σ1R [4], the affinity corresponds to a Ki of 8.8 ± 0.22 nM and the “Ki σ2/Ki σ1” value came out at 370.

As for `COc1ccc(CN2CCN(C(=O)Cc3ccccc3)CC2)cc1` [Compound 22, 1-{4-[(4-Methoxyphenyl)methyl]piperazin-1-yl}-2-phenylethan-1-one], the melting point fell in the range of 97.6 to 99.8 °C. At σ1R [4], the Ki is 145 ± 0.5 nM and the “Ki σ2/Ki σ1” value is given as 160.

On to `O=C(CCCCc1ccccc1)N1CCN(Cc2ccc(CO)cc2)CC1` [Compound 24, 1-(4-{[4-(Hydroxymethyl)phenyl]methyl}piperazin-1-yl)-5-phenylpentan-1-one], for which, on σ1R [4], the Ki is 6.1 ± 0.1 nM and the “Ki σ2/Ki σ1” value came out at 423.

Consider `FCCC1Cc2ccccc2C2(CCC(N3CCN(C4CCCCC4)CC3)CC2)O1` (stereo not drawn) [cis-7], for which the Ki at σ1R [2] was 19 nM.

`FCCC1Cc2ccccc2C2(CCC(N3CCN(C4CCCCC4)CC3)CC2)O1` (stereo not drawn) [trans-7]: the Ki at σ1R [2] is 12 nM.
